Laboratory results as given in patent EP1071665B1, “SUBSTITUTED INDOLINONES HAVING AN INHIBITING EFFECT ON KINASES AND CYCLINE/CDK COMPLEXES” (Boehringer Ingelheim Pharma GmbH & Co.KG, priority 1998, dated 1999).

System: Leiomyosarcoma Tumorzell-Linie SK-UT-1B
Assay: Test 2: inhibition of proliferation of cultured human tumour cells (14C-thymidine incorporation)
Type: cell-based
Details: Skut1B, SK-UT-1B cells, 48 h incubation with compound, then a further 24 h with 14C-thymidine, measured in duplicate, read-out: Hemmung der SKUT-1B-Proliferation IC50
Text: Inhibierung der Profileration von kultivierten humanen Tumorzellen
Zellen der Leiomyosarcoma Tumorzell-Linie SK-UT-1B (erhalten von der American Type Culture Collection (ATCC)) wurden in Minimum Essential Medium mit nicht essentiellen Aminosäuren (Gibco), ergänzt mit Natrium-Pyruvat (1 mMol), Glutamin (2 mMol) und 10% fötalem Rinderserum (Gibco) kultiviert und in der log-Wachstumsphase geerntet. Anschließend wurden die SK-UT-1B-Zellen in Cytostar® multi-well Platten (Amersham) mit einer Dichte von 4000 cells per well eingebracht und über Nacht in einem Inkubator inkubiert. Verschiedene Konzentrationen der Verbindungen (gelöst in DMSO; Endkonzentration: <1%) wurden zu den Zellen zugegeben. Nach 48 Stunden Inkubation wurde ^14C-Thymidin (Amersham) zu jedem well zugesetzt, und es wurde weitere 24 Stunden inkubiert. Die Menge an ^14C-Thymidin, die in Gegenwart des Inhibitors in die Tumorzellen eingebaut wurde und die die Zahl der Zellen in der S-Phase repräsentiert, wurde in einem Wallace 1450 Microbeta Flüssig Scintillations Zähler gemessen. IC50-Werte für die Inhibierung der Proliferation (= Inhibierung von eingebautem ^14C-Thymidin) wurden - unter Korrektur für die Hintergrundstrahlung - berechnet. Alle Messungen wurden zweifach ausgeführt.

Row | IC50 | Structure (SMILES)
1 | 40 nM | CCN(CC)CCCOc1ccc(N/C(=C2\C(=O)Nc3ccc(C(N)=O)cc32)c2ccccc2)cc1 [4(129), 3-Z-[1-(4-(3-Diethylamino-propoxy)-phenylamino)-1-phenylmethylen] -5-amido-2-indolinon-trifluoracetat]
2 | 30 nM | CN(Cc1ccccc1)Cc1ccc(N/C(=C2\C(=O)Nc3ccc(C(N)=O)cc32)c2ccccc2)cc1 [Beispiel 4(94), 3-Z-[1-(4-(N-Methyl-N-benzyl-amino-methyl)-phenylamino)-1-phenyl-methylen]-5-amido-2-indolinon-trifluoracetat]
3 | 180 nM | NC(=O)c1ccc2c(c1)/C(=C(/Nc1ccc(Br)cc1)c1ccccc1)C(=O)N2 [Beispiel 4(14), 3-Z-[1-(4-Brom-phenylamino)-1-phenyl-methylen]-5-amido-2-indolinon]
4 | 50 nM | CN(C)Cc1ccc(N/C(=C2\C(=O)Nc3ccc(C(N)=O)cc32)c2ccccc2)cc1 [Beispiel 4(62), 3-Z-[1-(4-Dimethylaminomethyl-phenylamino)-1-phenyl-methylen]-5-amido-2-indolinon]
5 | 40 nM | NC(=O)c1ccc2c(c1)/C(=C(/Nc1ccc(CNCc3ccccc3)cc1)c1ccccc1)C(=O)N2 [4(122), 3-Z-[1-(4-(N-(Phenyl-methyl)-aminomethyl)-phenylamino)-1-phenyl-methylen]-5-amido-2-indolinon-trifluoracetat]
6 | 170 nM | NC(=O)c1ccc2c(c1)/C(=C(/Nc1ccccc1)c1ccccc1)C(=O)N2 [Beispiel 4(2), 3-Z-(1-Phenylamino-1-phenyl-methylen)-5-amido-2-indolinon]
7 | 30 nM | NC(=O)c1ccc2c(c1)/C(=C(/Nc1ccc(CN3CCCCCC3)cc1)c1ccccc1)C(=O)N2 [Beispiel 4(54), 3-Z-[1-(4-Hexamethyleniminomethyl-phenylamino)-1-phenylmethylen]-5-amido-2-indolinon-trifluoracetat]
8 | 40 nM | CCCCNCc1ccc(N/C(=C2\C(=O)Nc3ccc(C(N)=O)cc32)c2ccccc2)cc1 [4(120), 3-2-[1-(4-(N-Butyl-aminomethyl)-phenylamino)-1-phenylmethylen]-5-amido-2-indolinon-trifluoracetat]
9 | 30 nM | NC(=O)c1ccc2c(c1)/C(=C(/Nc1ccc(CN3CCC(Cc4ccccc4)CC3)cc1)c1ccccc1)C(=O)N2 [Beispiel 4(60), 3-Z-[1-(4-(4-Benzyl-piperidinomethyl)-phenylamino)-1-phenyl-methylen]-5-amido-2-indolinon]
10 | 10 nM | NC(=O)c1ccc2c(c1)/C(=C(/Nc1ccc(CN3CCCCC3)cc1)c1ccccc1)C(=O)N2 [Beispiel 4(53), 3-Z-[1-(4-Piperidinomethyl-phenylamino)-1-phenyl-methylen] -5-amido-2-indolinon-trifluoracetat]
